{"source": "patent US10745408B2", "about": "“Biologically active taxane analogs and methods of treatment by oral administration” (Tapestry Pharmaceuticals, Inc., priority 2007, dated 2020)", "key": {"[1]": {"experiment": "Central nervous system (CNS) safety study in rats", "format": "in vivo, male Sprague Dawley rats", "experimental": "Toxicology. Central Nervous System (CNS) Safety Study in Rats:\nThis study was conducted at ClinTrials BioResearch (CTBR, Montreal, Quebec, Canada) as a GLP study.\nAll animals were observed twice daily for signs of ill health or reaction to treatment, except on day of arrival and necropsy. A Functional Observation Battery (FOB) assessment, along with grip strength, hind limb splay and body temperature measurements were performed for all animals once pre-dose and at approximately 15 minutes, 1 hour, 4 hours, 8 hours and 24 hours post-dose. After the last observation, all animals were euthanized without further examination."}, "[2]": {"experiment": "Phase 1 Study S-(1)-01 plasma pharmacokinetics (weekly x3, 28-day cycle)", "format": "in vivo, human", "conditions": "for half-life / AUC(0-t): human, plasma; for AUC(0-t): read-out: AUC0-24", "excerpt": "(§1) Both trials have enrolled patients with advanced solid tumors, non-Hodgkin's lymphoma or Hodgkin's lymphoma that have recurred or progressed following at least standard therapy; patients with malignancies for which there is no standard therapy; patients who are not candidates for standard therapy; or patients who have chosen not to pursue standard therapy. […] Study S-(1)-01 is currently being conducted in the United States. […] Study S-(1)-02 is currently being conducted in the United States and in Israel.\nPlasma pharmacokinetics of S-(1) were assessed following the first dose of S-(1) in both studies. Plasma samples were analyzed for S-(1) using a validated LC/MS-MS method."}, "[3]": {"tested_on": "patients with advanced neoplasms", "experiment": "Phase 1 Study S-(1)-02 safety, tolerability and anti-neoplastic activity", "format": "in vivo, human", "excerpt": "as §1\nTreatment cohorts were expanded to 6 pts in the face of dose-limiting toxicity (DLT); pts could remain on study until the development of progressive disease or an intolerable adverse event. DLT was defined as Gr 4 heme toxicity lasting 7 days; febrile neutropenia, Gr 3 thrombocytopenia with bleeding, Gr 3 elevation of transaminases lasting 7 days or any other Gr 3/4 toxicity other than nausea or vomiting."}, "[4]": {"experiment": "Human tumor xenografts in nude mice (efficacy and MTD studies)", "format": "in vivo", "conditions": "mouse, in vivo, po; nude mice, from efficacy and MTD studies; read-out: apparent oral bioavailability"}, "[5]": {"tested_on": "human tumor xenografts", "experiment": "Human tumor xenografts in nude mice (efficacy and MTD studies)", "format": "in vivo"}, "[6]": {"conditions": "14 mg/m^2 i.v., first dose, 50:50 Cremophor EL-P/ethanol formulation"}, "[7]": {"conditions": "28 mg/m^2 i.v., first dose, 50:50 Cremophor EL-P/ethanol formulation"}, "[8]": {"conditions": "56 mg/m^2 i.v., first dose, 50:50 Cremophor EL-P/ethanol formulation"}, "[9]": {"conditions": "85 mg/m^2 i.v., first dose, 50:50 Cremophor EL-P/ethanol formulation"}, "[10]": {"conditions": "127.5 mg/m^2 i.v., first dose, 50:50 Cremophor EL-P/ethanol formulation"}}, "note": "Entries after “also recorded” stand apart in the source; their conditions may differ. Where two headings read alike, the source gives them in different places.", "data": [{"smiles": "C=C[C@H]1O[C@H]2C[C@H]3OC[C@@]3(OC(C)=O)[C@H]3[C@H](OC(=O)c4ccccc4)[C@]4(C(C)(C)O)CC(OC(=O)[C@H](O)C(CC(C)C)NC(=O)OC(C)(C)C)C(C)=C4[C@H](OC(C)=O)[C@H](O1)[C@]23C", "note": "(stereo partly drawn) [S-(1)]", "values": [{"measurement": "deaths or treatment-related clinical signs", "setting": "[1]; single intravenous 6.25, 12.5 or 25 mg/kg", "result": "no deaths or treatment-related clinical signs"}, {"measurement": "biological effect on central nervous system (FOB, grip strength, hind limb splay, body temperature)", "setting": "[1]; single intravenous 6.25, 12.5 or 25 mg/kg, 15 minutes, 1, 4, 8 and 24 hours post-dose", "result": "no biological effects"}, {"measurement": "no adverse effect level", "setting": "[1]; single intravenous injection", "result": 25, "unit": "mg/kg"}, {"measurement": "Cl", "setting": "[2]; [6]", "result": "35.5 ± 29.7", "unit": "L/hr/m^2"}, {"measurement": "Vss", "setting": "[2]; [6]", "result": "23.2 ± 74.5", "unit": "L/m^2"}, {"measurement": "Cl", "setting": "[2]; [7]", "result": "43.5 ± 14.5", "unit": "L/hr/m^2"}, {"measurement": "Vss", "setting": "[2]; [7]", "result": "309 ± 161", "unit": "L/m^2"}, {"measurement": "Cl", "setting": "[2]; [8]", "result": "28.6 ± 13.2", "unit": "L/hr/m^2"}, {"measurement": "Vss", "setting": "[2]; [8]", "result": "216 ± 70", "unit": "L/m^2"}, {"measurement": "Cl", "setting": "[2]; [9]", "result": "16.6 ± 9.26", "unit": "L/hr/m^2"}, {"measurement": "Vss", "setting": "[2]; [9]", "result": "142 ± 75.6", "unit": "L/m^2"}, {"measurement": "Cl", "setting": "[2]; [10]", "result": "30.2±11.9", "unit": "L/hr/m^2"}, {"measurement": "Vss", "setting": "[2]; [10]", "result": "239 ± 116", "unit": "L/m^2"}, {"measurement": "t1/2", "setting": "[2]; [10]", "result": "6.59 ± 2.60", "unit": "h"}, {"measurement": "half-life", "setting": "[2]; intravenous, S-(1)-01 study, all dose groups, read-out: Plasma t1/2 values, range over dose groups", "result": "3.45 to 8.4", "unit": "h"}, {"measurement": "AUC(0-t)", "setting": "[2]; iv, 14 mg/m2, 14 mg/m^2 i.v., first dose, 50:50 Cremophor EL-P/ethanol formulation", "result": "457 ± 297", "unit": "ng·h/mL"}, {"measurement": "half-life", "setting": "[2]; iv, 14 mg/m2, 14 mg/m^2 i.v., first dose, 50:50 Cremophor EL-P/ethanol formulation, read-out: t1/2 (converted)", "result": "8.4 ± 11.5", "unit": "h"}, {"measurement": "AUC(0-t)", "setting": "[2]; iv, 28 mg/m2, 28 mg/m^2 i.v., first dose, 50:50 Cremophor EL-P/ethanol formulation", "result": "682 ± 322", "unit": "ng·h/mL"}, {"measurement": "half-life", "setting": "[2]; iv, 28 mg/m2, 28 mg/m^2 i.v., first dose, 50:50 Cremophor EL-P/ethanol formulation, read-out: t1/2 (converted)", "result": "3.45 ± 1.09", "unit": "h"}, {"measurement": "AUC(0-t)", "setting": "[2]; iv, 56 mg/m2, 56 mg/m^2 i.v., first dose, 50:50 Cremophor EL-P/ethanol formulation", "result": "2070 ± 888", "unit": "ng·h/mL"}, {"measurement": "half-life", "setting": "[2]; iv, 56 mg/m2, 56 mg/m^2 i.v., first dose, 50:50 Cremophor EL-P/ethanol formulation, read-out: t1/2 (converted)", "result": "5.66 ± 3.63", "unit": "h"}, {"measurement": "AUC(0-t)", "setting": "[2]; iv, 85 mg/m2, 85 mg/m^2 i.v., first dose, 50:50 Cremophor EL-P/ethanol formulation", "result": "5970 ± 3900", "unit": "ng·h/mL"}, {"measurement": "half-life", "setting": "[2]; iv, 85 mg/m2, 85 mg/m^2 i.v., first dose, 50:50 Cremophor EL-P/ethanol formulation, read-out: t1/2 (converted)", "result": "5.52 ± 5.26", "unit": "h"}, {"measurement": "AUC(0-t)", "setting": "[2]; iv, 127.5 mg/m2, 127.5 mg/m^2 i.v., first dose, 50:50 Cremophor EL-P/ethanol formulation", "result": "4460 ± 2140", "unit": "ng·h/mL"}, {"measurement": "half-life", "setting": "[2]; iv, 127.5 mg/m2, 127.5 mg/m^2 i.v., first dose, 50:50 Cremophor EL-P/ethanol formulation, read-out: t1/2 (converted)", "result": "8.6 ± 1.3", "unit": "h"}, {"measurement": "Dose limiting toxicity", "setting": "[3]; 160 mg/m^2 every 21 days", "result": "no DLT was observed"}, {"measurement": "Dose limiting toxicity", "setting": "[3]; 185 mg/m^2 every 21 days", "result": "Grade 3 sensory neuropathy; also recorded: Gr 3 peripheral sensory neuropathy"}, {"measurement": "anti-neoplastic activity", "setting": "[3]; 1 pt with pancreatic cancer", "result": "confirmed response"}, {"measurement": "Drug related adverse events", "setting": "[3]; 56-185 mg/m^2 every 21 days", "result": "mucositis, vomiting, diarrhea, neutropenia, thrombocytopenia, myalgias and peripheral neuropathy"}, {"measurement": "dose that can be safely administered", "setting": "[3]; every 21 days, heavily pre-treated patients", "result": 160, "unit": "mg/m^2"}, {"measurement": "bioavailability", "setting": "[4]", "result": "40 to 80", "unit": "%"}, {"measurement": "efficacy in mouse xenografts", "setting": "[5]; dosed either oral or iv", "result": "shows efficacy"}, {"measurement": "antitumor activity against multiple human tumor xenografts", "setting": "[5]; including xenografts that expressed mdr-1 and were resistant to other taxanes", "result": "demonstrated antitumor activity; also recorded: suppressed the growth"}]}]}
